Reference: PubChem BioAssay AID2060331 (Molecular Pharmacology Branch, DTP, NCI, 2025)
Several values for one entry are separate records, joined by “and”; a condition that tells them apart may be missing. Equal entries are not always repeated.

System: Hs578T multi-cell spheroids, viability
Experiment: Anticancer human tumor Hs578T cell line growth inhibition [IpAb];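 further: drug exposure lasted 7 days before readout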
Conditions: for viability, T/C: stronger effect = lower value
Description: Combinatorial screen of targeted agents with ipatasertib and abemaciclib in multi-cell type tumor spheroids
A high-throughput screen of multi-cell type tumor spheroids was designed to identify active combinations of targeted small molecules and ipatasertib or abemaciclib. Complex spheroids include a stromal component modeled by human endothelial cells (HUVEC) and fibroblasts modeled by human mesenchymal stem cells (MSCs). The concentration ranges selected for each drug and investigational agent were based upon clinically achievable concentrations if the clinical Cmax of the agent was known.
Compounds. The drugs and investigational agents: ipatasertib (NSC767898), abemaciclib(NSC768073), selumetinib (NSC741078), trametinib (758246), adavosertib (NSC754352), everolimus (NSC733504), sapanisertib (NSC764658), vemurafenib (NSC761431), venetoclax (NSC766270), copanlisib (NSC809693), apelisib (NSC765974), palbociblib (NSC758247), vemurafenib (NSC761431), dabrafenib (NSC764134), ravoxertinib (NSC781343), BMS-387032 (NSC767048), sotorasib (NSC818433), talazoparib (NSC767125) and afursertib (NSC778305), were obtained from the National Cancer Institute (NCI) Developmental Therapeutics Program Chemical Repository. The FDA-approved anticancer drug set is available from the NCI Developmental Therapeutics Program. […] The stock solutions were prepared in dimethyl sulfoxide (DMSO, Sigma-Aldrich, St. Louis, MO, cat. D2650) at 800-fold the tested concentration and stored at -70 degrees C prior to their use. All drugs and investigational agents were tested over a range starting from a high concentration at or near the clinical Cmax and decreasing in half-log increments. If the clinical Cmax for an agent had not been determined, the highest concentration tested was 10 microM.
NCI60 Cell Culture. NCI60 cell lines were obtained from the NCI Developmental Therapeutics Program Tumor Repository. For each lot of cells, the Repository performed Applied Biosystems AmpFLSTR Identifiler testing with PCR amplification to confirm consistency with the published Identifier STR profile for each cell line. Cells were kept in continuous culture for no more than 20 passages. The optimal seeding densities for each of the cell lines at each time point assessed were determined prior to performing the concentration response studies. Briefly, the NCI60 human tumor lines were grown as monolayers in RPMI 1640 medium supplemented with 10% FBS and 2 mmol/L L-glutamine.
An additional 9 lines were from the NCI60 cell line panel including MDA-MB-231 breast carcinoma, MDA-MB-468 breast carcinoma, MCF7 breast carcinoma, Hs578T breast carcinoma, MALME-3M melanoma, SK-MEL-2 melanoma, SK-OV-3 ovarian carcinoma, DU-145 prostate carcinoma, PC-3 prostate carcinoma, all cell lines along with major genetic alterations are listed on Table 2. Pooled donor human umbilical vein endothelial cells (HUVEC, Lonza, cat. CC-2519) and human mesenchymal stem cells (hMSC, Lonza, cat. PT-2501) were purchased from Lonza (Walkersville, MD).
PDMR cell lines were grown in complete medium (DC medium): Dulbecco's modified Eagle's medium (DMEM)/F12 supplemented with 5% fetal bovine serum (FBS), 2 mM L-glutamine, 100 U/mL penicillin and 100 µg/ml streptomycin, 0.4 µg/ml hydrocortisone, 10 ng/ml epidermal growth factor (EGF) recombinant human protein, 24 µg/mL adenine, and 0.1 mg/mL primocin. During culture from frozen stock vials, PDMR cells were cultured in the same medium containing 10 µM Y-27632 (see Table 3). The PDCs were cultured in complete DMEM/F12 media without 10 microM Y-27632 dihydrochloride for at least two passages prior to the screen. The pooled donor HUVEC and hMSC were cultured in endothelial cell growth medium 2 (PromoCell, Heidelberg, Germany, cat. C-22011) and mesenchymal stem cell growth medium 2 (PromoCell, cat. C-28009), respectively. For all experiments, HUVEC and hMSC were used at passages </=5.
[…]

[1] = curve of first compound, second compound 0.1 µM
[2] = curve of first compound, second compound 0.316 µM
[3] = curve of first compound, second compound 1 µM

CC(C)(C)c1cnc(CSc2cnc(NC(=O)C3CCNCC3)s2)o1 + CC(C)NCC(C(=O)N1CCN(c2ncnc3c2C(C)CC3O)CC1)c1ccc(Cl)cc1 showed an IC50 [1] of 180 nM, an IC50 [2] of 173 nM and an IC50 [3] of 156 nM. It also gave an IC50 (curve of first compound, second compound 3.16 µM) of 108 nM, an IC50 (curve of first compound, second compound 10 µM) of 33.3 nM and a viability, T/C (second compound 0.1 µM, first compound 0.00949 µM) of 104%. It also gave a viability, T/C (second compound 0.1 µM, first compound 0.03 µM) of 114%, a viability, T/C (second compound 0.1 µM, first compound 0.0949 µM) of 109% and a viability, T/C (second compound 0.1 µM, first compound 0.3 µM) of 2.64%. It also gave a viability, T/C (second compound 0.1 µM, first compound 0.949 µM) of 2.52%, a viability, T/C (second compound 0.1 µM, first compound 3 µM) of 3.3% and a viability, T/C (second compound 0.316 µM, first compound 0.00949 µM) of 93.5%. It also gave a viability, T/C (second compound 0.316 µM, first compound 0.03 µM) of 104%, a viability, T/C (second compound 0.316 µM, first compound 0.0949 µM) of 107% and a viability, T/C (second compound 0.316 µM, first compound 0.3 µM) of 2.26%. It also gave a viability, T/C (second compound 0.316 µM, first compound 0.949 µM) of 2.29%, a viability, T/C (second compound 0.316 µM, first compound 3 µM) of 2.23% and a viability, T/C (second compound 1 µM, first compound 0.00949 µM) of 80.7%. The viability, T/C (second compound 1 µM, first compound 0.03 µM) was 88.7%, the viability, T/C (second compound 1 µM, first compound 0.0949 µM) was 89.5% and the viability, T/C (second compound 1 µM, first compound 0.3 µM) was 2.31%. It also gave a viability, T/C (second compound 1 µM, first compound 0.949 µM) of 2.45%, a viability, T/C (second compound 1 µM, first compound 3 µM) of 2.32% and a viability, T/C (second compound 3.16 µM, first compound 0.00949 µM) of 60.5%. The viability, T/C (second compound 3.16 µM, first compound 0.03 µM) was 69.6%, the viability, T/C (second compound 3.16 µM, first compound 0.0949 µM) was 56.1% and the viability, T/C (second compound 3.16 µM, first compound 0.3 µM) was 2.25%. For the same molecule, the viability, T/C (second compound 3.16 µM, first compound 0.949 µM) was 3.36%, the viability, T/C (second compound 3.16 µM, first compound 3 µM) was 3.32% and the viability, T/C (second compound 10 µM, first compound 0.00949 µM) was 49.3%. It also gave a viability, T/C (second compound 10 µM, first compound 0.03 µM) of 57.7%, a viability, T/C (second compound 10 µM, first compound 0.0949 µM) of 14.8% and a viability, T/C (second compound 10 µM, first compound 0.3 µM) of 1.74%. For the same molecule, the viability, T/C (second compound 10 µM, first compound 0.949 µM) was 2.09% and the viability, T/C (second compound 10 µM, first compound 3 µM) was 2.94%.
Cn1ncnc1[C@H]1c2n[nH]c(=O)c3cc(F)cc(c23)N[C@@H]1c1ccc(F)cc1 + CCN1CCN(Cc2ccc(Nc3ncc(F)c(-c4cc(F)c5nc(C)n(C(C)C)c5c4)n3)nc2)CC1 showed an IC50 (curve of first compound, second compound 0.01 µM) of over 100 nM, an IC50 (curve of first compound, second compound 0.0316 µM) of over 100 nM and an IC50 [1] of over 100 nM. For the same molecule, the IC50 [2] was over 100 nM, the IC50 [3] was over 100 nM and the viability, T/C (second compound 0.01 µM, first compound 0.000316 µM) was 101%. The viability, T/C (second compound 0.01 µM, first compound 0.001 µM) was 100%, the viability, T/C (second compound 0.01 µM, first compound 0.00316 µM) was 95.2% and the viability, T/C (second compound 0.01 µM, first compound 0.01 µM) was 88.1%. For the same molecule, the viability, T/C (second compound 0.01 µM, first compound 0.0316 µM) was 93.4%, the viability, T/C (second compound 0.01 µM, first compound 0.1 µM) was 88.4% and the viability, T/C (second compound 0.0316 µM, first compound 0.000316 µM) was 99.3%. For the same molecule, the viability, T/C (second compound 0.0316 µM, first compound 0.001 µM) was 94.3%, the viability, T/C (second compound 0.0316 µM, first compound 0.00316 µM) was 91.5% and the viability, T/C (second compound 0.0316 µM, first compound 0.01 µM) was 93%. For the same molecule, the viability, T/C (second compound 0.0316 µM, first compound 0.0316 µM) was 87.3%, the viability, T/C (second compound 0.0316 µM, first compound 0.1 µM) was 84.8% and the viability, T/C (second compound 0.1 µM, first compound 0.000316 µM) was 84.9%. It also gave a viability, T/C (second compound 0.1 µM, first compound 0.001 µM) of 87.8%, a viability, T/C (second compound 0.1 µM, first compound 0.00316 µM) of 86.8% and a viability, T/C (second compound 0.1 µM, first compound 0.01 µM) of 81.8%. It also gave a viability, T/C (second compound 0.1 µM, first compound 0.0316 µM) of 85.5%, a viability, T/C (second compound 0.1 µM, first compound 0.1 µM) of 85.7% and a viability, T/C (second compound 0.316 µM, first compound 0.000316 µM) of 89.8%. The viability, T/C (second compound 0.316 µM, first compound 0.001 µM) was 88.2%, the viability, T/C (second compound 0.316 µM, first compound 0.00316 µM) was 91.8% and the viability, T/C (second compound 0.316 µM, first compound 0.01 µM) was 86.7%. For the same molecule, the viability, T/C (second compound 0.316 µM, first compound 0.0316 µM) was 84.6%, the viability, T/C (second compound 0.316 µM, first compound 0.1 µM) was 85.3% and the viability, T/C (second compound 1 µM, first compound 0.000316 µM) was 106%. The viability, T/C (second compound 1 µM, first compound 0.001 µM) was 102%, the viability, T/C (second compound 1 µM, first compound 0.00316 µM) was 104% and the viability, T/C (second compound 1 µM, first compound 0.01 µM) was 102%. The viability, T/C (second compound 1 µM, first compound 0.0316 µM) was 102% and the viability, T/C (second compound 1 µM, first compound 0.1 µM) was 94.7%.
Cn1nccc1Nc1nccc(-c2ccn(C(CO)c3ccc(Cl)c(F)c3)c(=O)c2)n1 (centres undefined) was tested, and the viability, T/C (compound 0.0316 µM) was 104% and 107%, the viability, T/C (compound 0.1 µM) was 114% and 115% and the viability, T/C (compound 0.316 µM) was 118% and 128%. The viability, T/C (compound 1 µM) was 90.7% and 94%, the viability, T/C (compound 3.16 µM) was 70.3% and 65.2% and the viability, T/C (compound 10 µM) was 24.4% and 35.9%. The IC50 (curve of compound) was 5130 nM and 5580 nM.
In the case of CC(C)NCC(C(=O)N1CCN(c2ncnc3c2C(C)CC3O)CC1)c1ccc(Cl)cc1 (centres undefined), the viability, T/C (compound 0.1 µM) is reported as 96.2% [middle of 13 runs], the viability, T/C (compound 0.316 µM) is reported as 83.9% [middle of 13 runs] and the viability, T/C (compound 1 µM) is reported as 66.8% [middle of 13 runs]. The viability, T/C (compound 3.16 µM) was 53.8% [middle of 12 runs] and the viability, T/C (compound 10 µM) was 45% [middle of 13 runs].
For CCCS(=O)(=O)Nc1ccc(F)c(C(=O)c2c[nH]c3ncc(-c4ccc(Cl)cc4)cc23)c1F, the viability, T/C (compound 0.0316 µM) was 95.3% and 98.5%, the viability, T/C (compound 0.1 µM) was 101% and 109% and the viability, T/C (compound 0.316 µM) was 109% and 105%. The viability, T/C (compound 1 µM) was 96.1% and 102%, the viability, T/C (compound 3.16 µM) was 81.1% and 85.8% and the viability, T/C (compound 10 µM) was 12.5% and 11.4%. The IC50 (curve of compound) was 5310 nM and 5510 nM.
